Experimental data taken from patent US10301294B2, “Compounds for the treatment of tuberculosis” (priority 2013, dated 2019).

System: carbon-starved M. tuberculosis H37Rv
Experiment: Non-replicating IC90 determination by luciferase (carbon-starved cells)
Assay type: cell-based
Settings: Mycobacterium tuberculosis, H37RV, 120 h; luciferase; None = inhibition did not reach 99%; read-out: Against carbon starved non-replicating Mtb IC99 (uM, luciferase)

Question: With `[N-]=[N+]=NCCOCCNC(=O)CCCOc1ccc(CSc2nnc(-c3ccc(Cl)cc3)o2)nc1` [drawing 237] as the compound, how does the IC99 read?
Answer: 62 µM

Question: For `C#CCCCOc1cc(-c2nnc(SCc3ccccn3)o2)ccc1F`, which IC99 is on record?
Answer: 64 µM

Question: For `OCCn1cc(CSc2nnc(-c3ccc(Cl)cc3)o2)nn1`, which IC99 is on record?
Answer: 31 µM

Question: Which IC99 does the source give for `[O-][S+](Cc1ccccc1)c1nnc(-c2ccccc2)o1` (stereo not shown) [drawing 213] here?
Answer: 4 µM

Same assay, conditions: Mycobacterium tuberculosis, H37RV; luciferase; IC90 given in brackets beside IC99; read-out: Against carbon starved non-replicating Mtb IC90 (in brackets, luciferase)

Question: With `C#CCCCOc1cc(-c2nnc(SCc3ccccn3)o2)ccc1F` as the compound, how does the IC90 read?
Answer: 4 µM

Same assay, conditions: Mycobacterium tuberculosis, H37RV; non-replicating carbon-starved Mtb, luciferase; three independent experiments in triplicate; read-out: TB Growth Inhibition Activity, IC90 Non-replicating_luciferase

Question: For `FC(F)(F)Oc1ccccc1-c1nnc(SCc2ccccc2)o1`, which IC90 is on record?
Answer: 62 µM

Question: With `c1ccc(-n2cc(CSc3nnc(C4CCC4)o3)nn2)cc1` as the compound, how does the IC90 read?
Answer: 2 µM

Question: Which IC90 does the source give for `Cc1ccc(CSc2nnc(-c3ccccc3)o2)cc1` here?
Answer: 1 µM

Question: With `FC(F)(F)c1cccc(-c2nnc(SCc3ccccc3)o2)c1` as the compound, how does the IC90 read?
Answer: 31 µM

Question: With `FC(F)(F)c1ccccc1CSc1nnc(-c2ccccc2)o1` as the compound, how does the IC90 read?
Answer: 1 µM

Question: Which IC90 does the source give for `O=S(=O)(Cc1ccccc1)c1nnc(-c2ccccc2)o1` [drawing 80] here?
Answer: 8 µM

Question: With `N#Cc1ccccc1CSc1nnc(-c2ccccc2)o1` as the compound, how does the IC90 read?
Answer: 4 µM

Question: Which IC90 does the source give for `FC(F)(F)c1ccc(-c2nnc(SCc3ccccc3)o2)cc1` here?
Answer: 1 µM

Question: Which IC90 does the source give for `N#Cc1ccc(-c2nnc(SCc3ccccc3)o2)cc1` here?
Answer: 8 µM

Question: With `c1ccc(-c2nnc(SCCN3CCOCC3)o2)cc1` as the compound, how does the IC90 read?
Answer: 250 µM

Question: Which IC90 does the source give for `N#Cc1ccc(CSc2nnc(-c3ccccc3)o2)cc1` here?
Answer: 2 µM

Question: Which IC90 does the source give for `c1ccc(-c2ccc(CSc3nnc(-c4ccccc4)o3)cc2)cc1` here?
Answer: 8 µM

Question: Which IC90 does the source give for `COc1cccc(CSc2nnc(-c3ccccc3)o2)c1` here?
Answer: 1 µM

Question: Which IC90 does the source give for `Cc1nnc(SCc2ccccc2)o1` here?
Answer: 31 µM

Question: For `FC(F)(F)Oc1cccc(CSc2nnc(-c3ccccc3)o2)c1`, which IC90 is on record?
Answer: 2 µM

Question: Which IC90 does the source give for `CC1(O)CN(CCSc2nnc(-c3ccccc3)o2)C1` here?
Answer: 125 µM

Question: With `Clc1cccc(CSc2nnc(-c3ccccc3)o2)c1` as the compound, how does the IC90 read?
Answer: 4 µM

Question: For `Cc1cccc(-c2nnc(SCc3ccccc3)o2)c1`, which IC90 is on record?
Answer: 8 µM

Question: For `c1ccc(CSc2nnc(-c3ccncc3)o2)cc1`, which IC90 is on record?
Answer: 31 µM

Question: Which IC90 does the source give for `O=C(Cc1ccccc1)c1nnc(-c2ccccc2)o1` here?
Answer: 16 µM

System: replicating M. tuberculosis H37Rv
Experiment: microbe, parasite or virus in culture
Assay type: cell-based
Settings: Mycobacterium tuberculosis, H37RV, None = inhibition did not reach 90%, read-out: Against Replicating Mtb IC90 (uM, GFP)

Question: With `[N-]=[N+]=NCCOCCNC(=O)CCCOc1ccc(CSc2nnc(-c3ccc(Cl)cc3)o2)nc1` [drawing 237] as the compound, how does the IC90 read?
Answer: 62 µM

Question: With `OCCn1cc(CSc2nnc(-c3ccc(Cl)cc3)o2)nn1` as the compound, how does the IC90 read?
Answer: 62 µM

Question: Which IC90 does the source give for `[O-][S+](Cc1ccccc1)c1nnc(-c2ccccc2)o1` (stereo not shown) [drawing 213] here?
Answer: 125 µM

Same assay, conditions: Mycobacterium tuberculosis, H37RV, three independent experiments in triplicate, read-out: TB Growth Inhibition Activity, IC90 Replicating_logarithmic (converted)

Question: With `c1ccc(-n2cc(CSc3nnc(C4CCC4)o3)nn2)cc1` as the compound, how does the IC90 read?
Answer: 62 µM

Question: Which IC90 does the source give for `O=S(=O)(Cc1ccccc1)c1nnc(-c2ccccc2)o1` [drawing 80] here?
Answer: 125 µM

Same assay, conditions: None = inhibition did not reach 90%

Question: For `C#CCCCOc1cc(-c2nnc(SCc3ccccn3)o2)ccc1F`, which “Against Replicating Mtb IC90 (uM, GFP)” value is on record?
Answer: None

System: not listed separately
Experiment: Cytotoxicity against Hek 293
Assay type: cell-based
Settings: human, HEK293 cells, 26.0 uM highest concentration measured

Question: With `FC(F)(F)Oc1ccccc1-c1nnc(SCc2ccccc2)o1` as the compound, how does the IC50 read?
Answer: > 26 µM

Question: Which IC50 does the source give for `c1ccc(-n2cc(CSc3nnc(C4CCC4)o3)nn2)cc1` here?
Answer: > 26 µM

Question: For `Cc1ccc(CSc2nnc(-c3ccccc3)o2)cc1`, which IC50 is on record?
Answer: > 26 µM

Question: With `FC(F)(F)c1cccc(-c2nnc(SCc3ccccc3)o2)c1` as the compound, how does the IC50 read?
Answer: > 26 µM

Question: Which IC50 does the source give for `FC(F)(F)c1ccccc1CSc1nnc(-c2ccccc2)o1` here?
Answer: > 26 µM

Question: Which IC50 does the source give for `O=S(=O)(Cc1ccccc1)c1nnc(-c2ccccc2)o1` [drawing 80] here?
Answer: > 26 µM

Question: With `N#Cc1ccccc1CSc1nnc(-c2ccccc2)o1` as the compound, how does the IC50 read?
Answer: > 26 µM

Question: For `FC(F)(F)c1ccc(-c2nnc(SCc3ccccc3)o2)cc1`, which IC50 is on record?
Answer: > 26 µM

Question: For `N#Cc1ccc(-c2nnc(SCc3ccccc3)o2)cc1`, which IC50 is on record?
Answer: > 26 µM

Question: Which IC50 does the source give for `c1ccc(-c2nnc(SCCN3CCOCC3)o2)cc1` here?
Answer: > 26 µM

Question: For `N#Cc1ccc(CSc2nnc(-c3ccccc3)o2)cc1`, which IC50 is on record?
Answer: > 26 µM

Question: Which IC50 does the source give for `c1ccc(-c2ccc(CSc3nnc(-c4ccccc4)o3)cc2)cc1` here?
Answer: > 26 µM

Question: For `COc1cccc(CSc2nnc(-c3ccccc3)o2)c1`, which IC50 is on record?
Answer: > 26 µM

Question: With `Cc1nnc(SCc2ccccc2)o1` as the compound, how does the IC50 read?
Answer: > 26 µM

Question: With `FC(F)(F)Oc1cccc(CSc2nnc(-c3ccccc3)o2)c1` as the compound, how does the IC50 read?
Answer: > 26 µM

Question: For `CC1(O)CN(CCSc2nnc(-c3ccccc3)o2)C1`, which IC50 is on record?
Answer: > 26 µM

Question: With `Clc1cccc(CSc2nnc(-c3ccccc3)o2)c1` as the compound, how does the IC50 read?
Answer: > 26 µM

Question: Which IC50 does the source give for `Cc1cccc(-c2nnc(SCc3ccccc3)o2)c1` here?
Answer: > 26 µM

Question: For `c1ccc(CSc2nnc(-c3ccncc3)o2)cc1`, which IC50 is on record?
Answer: > 26 µM

Question: Which IC50 does the source give for `O=C(Cc1ccccc1)c1nnc(-c2ccccc2)o1` here?
Answer: > 26 µM

System: not listed separately
Experiment: Cytotoxicity against HepG2
Assay type: cell-based
Settings: human, HepG2 cells, 26.0 uM highest concentration measured

Question: For `FC(F)(F)Oc1ccccc1-c1nnc(SCc2ccccc2)o1`, which IC50 is on record?
Answer: > 26 µM

Question: With `c1ccc(-n2cc(CSc3nnc(C4CCC4)o3)nn2)cc1` as the compound, how does the IC50 read?
Answer: > 26 µM

Question: Which IC50 does the source give for `Cc1ccc(CSc2nnc(-c3ccccc3)o2)cc1` here?
Answer: > 26 µM

Question: Which IC50 does the source give for `FC(F)(F)c1cccc(-c2nnc(SCc3ccccc3)o2)c1` here?
Answer: > 26 µM

Question: Which IC50 does the source give for `FC(F)(F)c1ccccc1CSc1nnc(-c2ccccc2)o1` here?
Answer: > 26 µM

Question: Which IC50 does the source give for `O=S(=O)(Cc1ccccc1)c1nnc(-c2ccccc2)o1` [drawing 80] here?
Answer: > 26 µM

Question: With `N#Cc1ccccc1CSc1nnc(-c2ccccc2)o1` as the compound, how does the IC50 read?
Answer: > 26 µM

Question: For `FC(F)(F)c1ccc(-c2nnc(SCc3ccccc3)o2)cc1`, which IC50 is on record?
Answer: > 26 µM

Question: Which IC50 does the source give for `N#Cc1ccc(-c2nnc(SCc3ccccc3)o2)cc1` here?
Answer: > 26 µM

Question: Which IC50 does the source give for `c1ccc(-c2nnc(SCCN3CCOCC3)o2)cc1` here?
Answer: > 26 µM

Question: Which IC50 does the source give for `N#Cc1ccc(CSc2nnc(-c3ccccc3)o2)cc1` here?
Answer: > 26 µM

Question: For `c1ccc(-c2ccc(CSc3nnc(-c4ccccc4)o3)cc2)cc1`, which IC50 is on record?
Answer: > 26 µM

Question: With `COc1cccc(CSc2nnc(-c3ccccc3)o2)c1` as the compound, how does the IC50 read?
Answer: > 26 µM

Question: For `Cc1nnc(SCc2ccccc2)o1`, which IC50 is on record?
Answer: > 26 µM

Question: For `FC(F)(F)Oc1cccc(CSc2nnc(-c3ccccc3)o2)c1`, which IC50 is on record?
Answer: > 26 µM

Question: With `CC1(O)CN(CCSc2nnc(-c3ccccc3)o2)C1` as the compound, how does the IC50 read?
Answer: > 26 µM

Question: With `Clc1cccc(CSc2nnc(-c3ccccc3)o2)c1` as the compound, how does the IC50 read?
Answer: > 26 µM

Question: Which IC50 does the source give for `Cc1cccc(-c2nnc(SCc3ccccc3)o2)c1` here?
Answer: > 26 µM

Question: For `c1ccc(CSc2nnc(-c3ccncc3)o2)cc1`, which IC50 is on record?
Answer: > 26 µM

Question: Which IC50 does the source give for `O=C(Cc1ccccc1)c1nnc(-c2ccccc2)o1` here?
Answer: > 26 µM

System: not listed separately
Experiment: Cytotoxicity against HeLa
Assay type: cell-based
Settings: human, HeLa cells, 26.0 uM highest concentration measured

Question: Which IC50 does the source give for `FC(F)(F)Oc1ccccc1-c1nnc(SCc2ccccc2)o1` here?
Answer: > 26 µM

Question: With `c1ccc(-n2cc(CSc3nnc(C4CCC4)o3)nn2)cc1` as the compound, how does the IC50 read?
Answer: > 26 µM

Question: For `Cc1ccc(CSc2nnc(-c3ccccc3)o2)cc1`, which IC50 is on record?
Answer: > 26 µM

Question: For `FC(F)(F)c1cccc(-c2nnc(SCc3ccccc3)o2)c1`, which IC50 is on record?
Answer: > 26 µM

Question: With `FC(F)(F)c1ccccc1CSc1nnc(-c2ccccc2)o1` as the compound, how does the IC50 read?
Answer: > 26 µM

Question: Which IC50 does the source give for `O=S(=O)(Cc1ccccc1)c1nnc(-c2ccccc2)o1` [drawing 80] here?
Answer: > 26 µM

Question: With `N#Cc1ccccc1CSc1nnc(-c2ccccc2)o1` as the compound, how does the IC50 read?
Answer: > 26 µM

Question: With `FC(F)(F)c1ccc(-c2nnc(SCc3ccccc3)o2)cc1` as the compound, how does the IC50 read?
Answer: > 26 µM

Question: Which IC50 does the source give for `N#Cc1ccc(-c2nnc(SCc3ccccc3)o2)cc1` here?
Answer: > 26 µM

Question: With `c1ccc(-c2nnc(SCCN3CCOCC3)o2)cc1` as the compound, how does the IC50 read?
Answer: > 26 µM

Question: For `N#Cc1ccc(CSc2nnc(-c3ccccc3)o2)cc1`, which IC50 is on record?
Answer: > 26 µM

Question: For `c1ccc(-c2ccc(CSc3nnc(-c4ccccc4)o3)cc2)cc1`, which IC50 is on record?
Answer: > 26 µM

Question: With `COc1cccc(CSc2nnc(-c3ccccc3)o2)c1` as the compound, how does the IC50 read?
Answer: > 26 µM

Question: For `Cc1nnc(SCc2ccccc2)o1`, which IC50 is on record?
Answer: > 26 µM

Question: Which IC50 does the source give for `FC(F)(F)Oc1cccc(CSc2nnc(-c3ccccc3)o2)c1` here?
Answer: > 26 µM

Question: Which IC50 does the source give for `CC1(O)CN(CCSc2nnc(-c3ccccc3)o2)C1` here?
Answer: > 26 µM

Question: For `Clc1cccc(CSc2nnc(-c3ccccc3)o2)c1`, which IC50 is on record?
Answer: > 26 µM

Question: With `Cc1cccc(-c2nnc(SCc3ccccc3)o2)c1` as the compound, how does the IC50 read?
Answer: > 26 µM

Question: With `c1ccc(CSc2nnc(-c3ccncc3)o2)cc1` as the compound, how does the IC50 read?
Answer: > 26 µM

Question: For `O=C(Cc1ccccc1)c1nnc(-c2ccccc2)o1`, which IC50 is on record?
Answer: > 26 µM
